Results reported in US6465466B1, “Uses of indolo-2 [2,3b] -quinoxalines” (priority 1995, dated 2002).

Tests used:
[1] = tested on: regeneration of liver tissue; assay: In vivo toxicity: liver regeneration after partial hepatectomy (liver-somatic index); set-up: species or system rats
Experimental: The in vivo toxicity of B-220 was tested in rats. A portion of the liver was removed (partial hepatectomy, PH) by surgery and the regeneration of liver tissue was studied. The regeneration was measured as liver-somatic index (LSI), in other words, the relative liver weight in percent of the body weight.
AAF (2-acetylaminofluorene) is a very toxic substance which acts as a mito-inhibitor, i.e. inhibits cell division of normal liver cells.
The results are shown in FIG. 3 wherein LSI is plotted against days after partial hepatectomy.

bacterial strain TA 100 = assay: Ames test, mutagenicity of MMS and EMS with and without B-220; assay type: cell-based, Salmonella; conditions: for mutagenicity of the mutagen alone (revertants/plate): TA 100, without B-220
Experimental: The following example illustrates the fact that compound B-220 reduces the mutagenicity of potent mutagens in the bacterial mutagenicity test, the “Ames test”. In the test the bacterial strain TA 100 was used. […] These mutagens were MMS=Methylmethanesulphonate and EMS=Ethylmethanesulphonate. The results of the experiments carried out are shown graphically in FIGS. 2a and 2b. In the Figures revertants/plate, is plotted against microgram MMS and EMS, respectively, plus 70 μg B-220.

test strain TA100 = assay: Ames test, mutagenic potential of the substances, test strain TA100; assay type: cell-based, Salmonella; conditions: for anti-mutagenic potential (reduction of spontaneous background): TA100; for mutagenic potential (revertants/plate): TA100, with and without S9
Excerpt: This example illustrates the mutagenic potential in the bacterial mutagenicity test, “Ames test”, with test strain TA100, of B-220 (FIG. 1a) and 9-OH-B-220 (FIG. 1b). S9 indicates the presence […] or absence (−S9) of a cellular enzymatic fraction capable to metabolize the tested substances. The metabolic activation is a liver fraction containing enzymes needed in metabolism. In the Figures revertants/plate, an intensity measurement of mutagenic activity, is plotted against μg B-220 and μg 9-OH-B-220.

[2] = tested on: 8-hydroxy-2'-deoxyguanosine (8-OH-dG); assay: 8-OH-dG formation in DNA after oral 2,7-dinitrofluorene; assay type: in vivo; conditions: rats pre-treated with B220, 2,7-dNF orally
Excerpt: Oxidation of deoxyguanosine (dG), one of the bases in DNA, is an oxidative lesion of DNA related to oxidative stress. The reaction product between free radicals and dG is 8-hydroxy-2′-deoxyguanosine (8-OH-dG). This biomarker is a reaction product found in DNA, i.e. the oxidative stress is not only found as oxidants in the circulation or in the cytoplasm, but reaches the nucleus and reacts with DNA. In FIG. 8 results are shown when the urban air pollutant (result of incomplete combustion of fuels of vehicles) and carcinogen 2,7-dinitrofluorene (2,7-dNF) was administered orally to rats. In the metabolism, reactive intermediates were formed that oxidized dG to 8-OH-dG.

skin tumors = assay: Skin tumor model, DMBA initiation and TPA promotion; assay type: in vivo, mice
Experimental: The compounds used according to the present invention have been tested as regards the formation of tumors (skin tumors) for mice subjected to strong tumor initiating and strong tumor promotion conditions. […] Furthermore, if the administration of the compound used according to the present invention is terminated, the animals will develop the same number of tumors as in the positive control. This means that the original DNA injury remains and the tumor promoter which is administered continuously can give rise to a considerable development of tumors. Accordingly a compound used according to the present invention can stop the tumor process caused by potent tumor promoting agents in combination with potent tumor initiators.
This example illustrates a tumor model which is based on in vivo tumor initiation with one does of dimethylbenzanthracene (DMBA) where after, a potent tumor promoter […] (TPA) was administered twice a week. After a number of weeks the skin tumors can be detected and followed during the study, After approximately 100 days (A) the positive controls reached the maximum, where after the total number declines due to the behavior of the animals. […] After six months exposure of B-220+TPA in the B-220 group, B-220 was no longer administered (B).

[3] = Whole body gamma-irradiation of mice; assay type: in vivo
Experimental: Gamma-irradiation is a very potent agent which can induce oxidative stress, reduce body weight gain and shorten life span. In FIG. […] The human LD50 of gamma-irradiation os approximately 3 Gy.
“B220” was administered intra peritoneal in corn oil 24 and 3 h before the irradiation.
The body weight gain of each group is shown as percent of the body weight at the time of irradiation. A lower body weight gain is an indicator of a shorter life span in the long term perspective. Gamma-irradiation is a way to induce a premature aging which is also seen as gray fur in these mice.

[4] = tested on: human cell cultures of phagocytes; assay: Luminol chemiluminescence in human phagocyte cultures; assay type: cell-based; conditions: dose dependent; intracellular, also seen extracellular; same effect as salt and free base
Excerpt: In this test the effects of “B220” have been exposed to human cell cultures of phagocytes. Luminol reacts with the markers for oxidative stress, hydrogen peroxide or the superoxide ion, and generates light. […] “B220” has the same effect both in the form of salt and the free base.

Compound: CN(C)CCn1c2ccc(O)cc2c2nc3ccccc3nc21
- melting point: 269 to 270 °C

Compound: CC(=O)Nc1ccc2c(c1)Cc1ccccc1-2 [AAF, 2-acetylaminofluorene, reference compound]
- regeneration of liver tissue (liver-somatic index, LSI) ([1]; rats, days after partial hepatectomy): very slow

Compound: CCOS(C)(=O)=O [EMS, Ethylmethanesulphonate, reference compound]
- mutagenicity of the mutagen alone (revertants/plate) (bacterial strain TA 100): strong mutagen

Compound: Cc1cc2nc3c4cc(O)ccc4n(CCN(C)C)c3nc2cc1C [Example 9-OH-B-220, 2,3-Dimethyl-6-(2-dimethylaminoethyl)-9-hydroxy-6H-indolo[2,3-b]-quinoxaline]
- anti-mutagenic potential (reduction of spontaneous background) (test strain TA100): anti-mutagenic
- mutagenic potential (revertants/plate) (test strain TA100): non-mutagenic

Compound: Cc1cc2nc3c4ccccc4n(CCN(C)C)c3nc2cc1C [Example B-220]
- oxidative stress (8-OH-dG in DNA) [2]: down-regulated to levels lower than the controls
- skin tumors (skin tumors; after six months of B-220+TPA): very slight increase in tumors
- skin tumors after B-220 no longer administered (skin tumors; after six months, TPA continued, B-220 stopped): rapid increase of tumors
- skin tumors (skin tumors; approximately 100 days, B-220 one hour before TPA, DMBA-initiated): no tumors at all
- carcinogenicity (skin tumors; skin tumor model): not a carcinogen
- protective effect (life span) ([3]; 8 Gy, administration after irradiation): protective effect similar to pre-treatment
- protective effect (increased life span) ([3]; 8 Gy, intra peritoneal in corn oil 24 and 3 h before irradiation): protective effect
- protective effect (life span) ([3]; 14 Gy, intra peritoneal in corn oil 24 and 3 h before irradiation): no protective effect
- body weight gain ([3]; lower doses, 1 and 6 Gy): increased body weight gain
- formation of hydrogen peroxide and superoxide ion generated by oxidase (chemiluminescence) [4]: down regulates and even eliminates
- anti-mutagenic potential (reduction of spontaneous background) (test strain TA100): anti-mutagenic
- mutagenic potential (revertants/plate) (test strain TA100): non-mutagenic
- mutagenicity of EMS when B-220 is added (bacterial strain TA 100; TA 100, EMS plus 70 μg B-220): reduced the mutagenicity but not as much as for MMS
- mutagenicity of MMS when B-220 is added (bacterial strain TA 100; TA 100, MMS plus 70 μg B-220): the mutagenicity disappears
- regeneration of liver tissue (liver-somatic index, LSI) ([1]; rat, in vivo): no difference from the controls
- toxic effects in vivo ([1]; rat, in vivo): did not show any toxic effects

Compound: COS(C)(=O)=O [MMS, Methylmethanesulphonate, reference compound]
- mutagenicity of the mutagen alone (revertants/plate) (bacterial strain TA 100): strong mutagen
